# Target: T1, HIV-1 Vif protein (Vif-Vif interaction) (Human immunodeficiency virus type 1 group M subtype B, UniProt P12504)
# T1 construct: The vif gene also was inserted into pGEX vector for in vitro expression and isolation of GST-Vif fusion protein; The PCR-generated wild-type vif gene and its mutants were then inserted into pCITE-4a vector; made in house; host or cells: GST-Vif: E. coli BL21 (pGEX); 35S-Vif: in vitro translation from pCITE-4a (Novagen kit)
# Format: binding
# Conditions: for 35S-Vif binds with GST-Vif (%) Mean ± SD: peptide added to the Vif-Vif binding reaction, no peptide (GST pull-down) designated as 100%; for Inhibition of Vif-Vif interaction (in words): synthesized peptides added into the reaction system for Vif-Vif binding, in vitro
# Method: The vector pGEX, with or without the vif gene, was transformed into BL21 competent cells (Novagen, Madison, Wis.). After growth at 37° C. to approximately 0.6 O.D., the expression of GST or GST-Vif proteins was induced by 0.4 mM isopropylthio-β-D-galactoside (IPTG). The bacterial cells were lyzed by adding lysing buffer (1% Triton-X-100, 0.1 mg/ml lysozyme, 2 mM EDTA, 1 mM PMSF, 2 μg/ml leupeptin, and 1 μg/ml aprotinin), followed by sonication. The sample was pelleted at 12,000 g for 10 min at 4° C., and the supernatant was applied to a glutathione-conjugated agarose bead (Sigma, St. Louis, Mo.) column. After batch binding, the matrix was washed three times, each time by the addition of 10 bed volumes of phosphorus-buffer saline (PBS). The GST or GST-Vif conjugated agarose beads were then aliquoted and stored at −20° C. Conversely, ^35S-labeled Vif or its mutant proteins were synthesized utilizing SPT3 kits (Novagen, Madison, Wis.). The protocol supplied by the manufacturer was followed. After in vitro translation, RNase A (0.2 mg/ml) was added to stop the reaction and remove tRNAs and the in vitro transcribed mRNA. The trichloroacetic acid (TCA)-insoluble radioactive amino acids were quantitated in the presence of a scintillation cocktail.
# For GST pull-down assays, a GST or GST-Vif conjugated bead slurry was mixed with ^35S-labeled Vif or its mutants (50,000 cpm) in a binding buffer [150 mM NaCl, 20 mM Tris-HCl (pH 7.5), 0.1% Triton-X-100]. After binding at 4° C. for 1 hour, the mixture was centrifuged at 3,000 g for 1 min, and the beads were washed three times with binding buffer. The ^35S-labeled Vif proteins were dissociated from the beads by adding SDS-containing loading buffer and heating at 95° C. for 5 minutes. The samples were then electrophoresized in SDS-PAGE gels (15% Tris-HCl ready gel made by Bio-Rad, Hercules, Calif.). After treatment with the fixing buffer (10% acetic acid, 10% methanol) and then the Amplify (Amersham-Pharmacia, Piscataway, N.J.), the gels were dried and exposed to X-ray film or quantitatively analyzed utilizing phosphor image (Molecular Dynamics, Sunnyview, Calif.).
# A Vif-Vif binding assay was similar to the GST pull-down assays, except that the GST or GST-Vif conjugated bead slurry was mixed with ^35S-labeled Vif and the test peptides or molecules in the binding buffer. The results were compared to that from the GST pull-down assay, which was designated as 100%.
# T1 sequence (P12504 whole entry, the tested form may be a part): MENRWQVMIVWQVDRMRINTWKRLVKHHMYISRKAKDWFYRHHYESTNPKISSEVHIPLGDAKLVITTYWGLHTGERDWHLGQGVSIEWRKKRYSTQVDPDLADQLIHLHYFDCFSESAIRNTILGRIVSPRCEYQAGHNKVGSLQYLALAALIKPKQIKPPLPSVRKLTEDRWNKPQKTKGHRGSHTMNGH
Sequence,35S-Vif binds with GST-Vif (%) Mean ± SD,Inhibition of Vif-Vif interaction (in words)
ESAIRKAILGHIVSP [Vif117-131],94.5 ± 11.2%,
KKIKPPLPSVTKLTE [Vif157-171],49.2 ± 2.5%,able to inhibit the Vif-Vif interaction
KPKKIKPPLPSV [Vif155-166],57.1 ± 8.7%,able to inhibit the Vif-Vif interaction
LPLPAPSFHRTT [VMI9],22.0 + 6.2%,significantly inhibit Vif-Vif interaction
PPLPSVTKLTEDRWN [Vif161-175],70.2 ± 5.5%,able to inhibit the Vif-Vif interaction
SNQGGSPLPRSV [VMI7],19.0 ± 2.2%,significantly inhibit Vif-Vif interaction
"SVSVGMKPSPRP (Synthetic peptide containing PXP motif) [VMI5, 12-mer peptide containing a PXP motif]",36.3 ± 5.1%,

# Reference: patent US7226741B2, “Multimerization of HIV-1 Vif protein as a therapeutic target” (priority 2001, dated 2007)
